Results: paper PMC8909834, “An Orally Bioavailable and Highly Efficacious Inhibitor of CDK9/FLT3 for the Treatment of Acute Myeloid Leukemia” (Cancers, 2022)

What was measured:
Test in all cases: Kinase Hotspot radiolabel assay
Type in all cases: biochemical
Details in all cases: read-out: % Residual Activity
[1] = target: T1, BRK (Homo sapiens, UniProt Q13882)
T1 construct: purchased Reaction Biology Corporation (Kinase HotSpot)
How it was run: (§1)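 Single-point (1 µM) radiolabel kinase profiling across 369 kinases. Kinases exceeding 90% inhibition were carried forward for Ki values.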

[2] = target: T2, RIPK4 (Homo sapiens, UniProt P57078)
T2 construct: purchased Reaction Biology Corporation (Kinase HotSpot)
How it was run: as §1

[3] = target: T3, PKD2/PRKD2 (Homo sapiens, UniProt Q9BZL6)
T3 construct: purchased Reaction Biology Corporation (Kinase HotSpot)
How it was run: as §1

[4] = target: T4, MAPKAPK2 (Homo sapiens, UniProt P49137)
T4 construct: purchased Reaction Biology Corporation (Kinase HotSpot)
T4 sequence (P49137 whole entry): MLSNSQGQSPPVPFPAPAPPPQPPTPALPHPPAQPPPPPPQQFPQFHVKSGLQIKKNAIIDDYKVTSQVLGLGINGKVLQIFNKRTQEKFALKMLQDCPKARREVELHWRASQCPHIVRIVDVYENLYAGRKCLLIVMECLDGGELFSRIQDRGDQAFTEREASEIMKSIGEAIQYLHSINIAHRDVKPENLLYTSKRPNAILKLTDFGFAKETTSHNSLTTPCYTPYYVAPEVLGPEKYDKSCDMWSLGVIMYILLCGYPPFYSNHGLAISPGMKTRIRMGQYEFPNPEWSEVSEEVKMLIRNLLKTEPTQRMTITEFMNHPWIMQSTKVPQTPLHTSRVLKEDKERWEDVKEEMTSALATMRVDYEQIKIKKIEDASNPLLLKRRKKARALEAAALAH
How it was run: as §1

[5] = target: T5, MLCK/MYLK (Homo sapiens, UniProt Q15746)
T5 construct: purchased Reaction Biology Corporation (Kinase HotSpot)
How it was run: as §1

[6] = target: T6, DCAMKL1 (Homo sapiens, UniProt O15075)
T6 construct: purchased Reaction Biology Corporation (Kinase HotSpot)
T6 sequence (O15075 whole entry): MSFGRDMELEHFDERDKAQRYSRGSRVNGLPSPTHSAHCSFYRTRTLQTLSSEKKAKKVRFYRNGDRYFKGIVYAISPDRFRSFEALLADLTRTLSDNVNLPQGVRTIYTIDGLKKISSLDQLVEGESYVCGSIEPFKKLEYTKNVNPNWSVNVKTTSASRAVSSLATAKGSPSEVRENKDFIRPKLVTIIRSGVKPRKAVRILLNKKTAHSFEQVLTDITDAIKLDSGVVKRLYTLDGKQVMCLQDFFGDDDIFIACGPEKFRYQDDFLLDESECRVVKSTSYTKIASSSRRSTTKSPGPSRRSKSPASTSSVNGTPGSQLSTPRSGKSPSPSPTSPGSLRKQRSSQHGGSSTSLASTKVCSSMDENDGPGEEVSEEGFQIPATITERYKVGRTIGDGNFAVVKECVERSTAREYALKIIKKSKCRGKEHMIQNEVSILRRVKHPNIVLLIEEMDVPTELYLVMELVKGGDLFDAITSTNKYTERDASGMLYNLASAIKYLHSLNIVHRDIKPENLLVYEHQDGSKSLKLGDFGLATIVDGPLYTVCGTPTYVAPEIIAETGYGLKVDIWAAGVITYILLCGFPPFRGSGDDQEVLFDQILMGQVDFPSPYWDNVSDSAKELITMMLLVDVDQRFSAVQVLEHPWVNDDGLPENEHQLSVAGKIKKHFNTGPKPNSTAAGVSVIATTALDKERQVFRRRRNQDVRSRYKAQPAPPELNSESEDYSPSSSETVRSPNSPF
How it was run: as §1

[7] = target: T7, CDK1/cyclin E (Homo sapiens, UniProt P06493)
T7 construct: purchased Reaction Biology Corporation (Kinase HotSpot)
How it was run: as §1

[8] = target: T8, PASK (Homo sapiens, UniProt Q96RG2)
T8 construct: purchased Reaction Biology Corporation (Kinase HotSpot)
How it was run: as §1

[9] = target: T9, MLK1/MAP3K9 (Homo sapiens, UniProt P80192)
T9 construct: purchased Reaction Biology Corporation (Kinase HotSpot)
T9 sequence (P80192 whole entry): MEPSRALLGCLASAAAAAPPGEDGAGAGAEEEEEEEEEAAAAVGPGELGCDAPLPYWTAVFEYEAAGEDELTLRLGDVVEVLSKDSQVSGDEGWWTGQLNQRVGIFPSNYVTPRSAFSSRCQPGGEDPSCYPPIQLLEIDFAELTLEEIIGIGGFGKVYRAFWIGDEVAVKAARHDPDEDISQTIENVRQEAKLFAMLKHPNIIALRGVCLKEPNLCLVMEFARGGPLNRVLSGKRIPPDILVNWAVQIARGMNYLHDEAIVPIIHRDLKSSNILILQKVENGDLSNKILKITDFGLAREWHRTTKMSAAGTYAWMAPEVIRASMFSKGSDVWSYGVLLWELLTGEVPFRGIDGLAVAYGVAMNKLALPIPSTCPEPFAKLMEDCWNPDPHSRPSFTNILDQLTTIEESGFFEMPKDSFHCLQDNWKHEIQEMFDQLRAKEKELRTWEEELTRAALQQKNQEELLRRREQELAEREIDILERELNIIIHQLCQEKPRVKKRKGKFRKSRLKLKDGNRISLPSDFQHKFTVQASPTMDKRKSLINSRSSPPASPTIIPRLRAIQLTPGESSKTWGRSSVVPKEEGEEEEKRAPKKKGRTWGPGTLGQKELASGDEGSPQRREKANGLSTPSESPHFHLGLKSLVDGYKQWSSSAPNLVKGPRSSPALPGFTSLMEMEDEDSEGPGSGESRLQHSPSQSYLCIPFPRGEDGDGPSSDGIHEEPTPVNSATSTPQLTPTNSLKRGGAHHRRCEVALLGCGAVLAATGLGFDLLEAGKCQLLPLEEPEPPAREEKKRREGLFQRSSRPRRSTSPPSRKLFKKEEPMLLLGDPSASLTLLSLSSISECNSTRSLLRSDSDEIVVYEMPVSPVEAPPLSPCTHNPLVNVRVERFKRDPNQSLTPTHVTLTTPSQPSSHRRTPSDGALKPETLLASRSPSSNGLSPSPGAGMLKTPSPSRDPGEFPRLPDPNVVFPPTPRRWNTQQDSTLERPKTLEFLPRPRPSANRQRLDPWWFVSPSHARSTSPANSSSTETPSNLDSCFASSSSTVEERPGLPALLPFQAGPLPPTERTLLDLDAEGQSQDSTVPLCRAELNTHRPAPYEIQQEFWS
How it was run: as §1

[10] = target: T10, TIE2/TEK (Homo sapiens, UniProt Q02763)
T10 construct: purchased Reaction Biology Corporation (Kinase HotSpot)
How it was run: as §1

[11] = target: T11, STK38/NDR1 (Homo sapiens, UniProt Q15208)
T11 construct: purchased Reaction Biology Corporation (Kinase HotSpot)
How it was run: as §1

[12] = target: T12, CAMKK2 (Homo sapiens, UniProt Q96RR4)
T12 construct: purchased Reaction Biology Corporation (Kinase HotSpot)
How it was run: as §1

[13] = target: T13, LATS2 (Homo sapiens, UniProt Q9NRM7)
T13 construct: purchased Reaction Biology Corporation (Kinase HotSpot)
How it was run: as §1

[14] = target: T14, KSR2 (Homo sapiens, UniProt Q6VAB6)
T14 construct: purchased Reaction Biology Corporation (Kinase HotSpot)
How it was run: as §1

[15] = target: T15, FMS (Homo sapiens, UniProt P07333)
T15 construct: purchased Reaction Biology Corporation (Kinase HotSpot)
How it was run: as §1

[16] = target: T16, PKAcg (Homo sapiens, UniProt P22612)
T16 construct: purchased Reaction Biology Corporation (Kinase HotSpot)
T16 sequence (P22612 whole entry): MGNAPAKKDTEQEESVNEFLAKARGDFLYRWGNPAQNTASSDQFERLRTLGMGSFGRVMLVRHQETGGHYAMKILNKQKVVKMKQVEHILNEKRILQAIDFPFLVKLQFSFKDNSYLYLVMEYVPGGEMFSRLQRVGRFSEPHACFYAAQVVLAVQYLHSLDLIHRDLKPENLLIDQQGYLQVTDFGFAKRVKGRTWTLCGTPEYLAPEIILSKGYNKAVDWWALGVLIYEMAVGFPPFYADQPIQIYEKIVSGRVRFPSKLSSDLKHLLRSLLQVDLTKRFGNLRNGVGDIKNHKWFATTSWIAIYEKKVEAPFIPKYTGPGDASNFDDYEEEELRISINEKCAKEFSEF
How it was run: as §1

[17] = target: T17, P38a/MAPK14 (Homo sapiens, UniProt Q16539)
T17 construct: purchased Reaction Biology Corporation (Kinase HotSpot)
T17 sequence (Q16539 whole entry): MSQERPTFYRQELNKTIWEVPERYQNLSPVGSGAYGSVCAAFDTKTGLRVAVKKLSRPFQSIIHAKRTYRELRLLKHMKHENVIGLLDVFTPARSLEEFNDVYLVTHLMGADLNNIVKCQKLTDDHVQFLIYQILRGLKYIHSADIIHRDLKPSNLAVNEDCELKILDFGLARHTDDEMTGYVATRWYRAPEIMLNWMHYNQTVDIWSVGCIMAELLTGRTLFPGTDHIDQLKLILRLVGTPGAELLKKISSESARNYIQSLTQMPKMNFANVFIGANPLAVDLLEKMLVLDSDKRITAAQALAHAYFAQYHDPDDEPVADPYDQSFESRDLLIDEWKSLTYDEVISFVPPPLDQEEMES
How it was run: as §1

[18] = target: T18, JNK2 (Homo sapiens, UniProt P45984)
T18 construct: purchased Reaction Biology Corporation (Kinase HotSpot)
How it was run: as §1

[19] = target: T19, LIMK1 (Homo sapiens, UniProt P53667)
T19 construct: purchased Reaction Biology Corporation (Kinase HotSpot)
How it was run: as §1

[20] = target: T20, PKA (Homo sapiens, UniProt P17612)
T20 construct: purchased Reaction Biology Corporation (Kinase HotSpot)
How it was run: as §1

[21] = target: T21, FGFR3 (Homo sapiens, UniProt P22607)
T21 construct: purchased Reaction Biology Corporation (Kinase HotSpot)
T21 sequence (P22607 23-806): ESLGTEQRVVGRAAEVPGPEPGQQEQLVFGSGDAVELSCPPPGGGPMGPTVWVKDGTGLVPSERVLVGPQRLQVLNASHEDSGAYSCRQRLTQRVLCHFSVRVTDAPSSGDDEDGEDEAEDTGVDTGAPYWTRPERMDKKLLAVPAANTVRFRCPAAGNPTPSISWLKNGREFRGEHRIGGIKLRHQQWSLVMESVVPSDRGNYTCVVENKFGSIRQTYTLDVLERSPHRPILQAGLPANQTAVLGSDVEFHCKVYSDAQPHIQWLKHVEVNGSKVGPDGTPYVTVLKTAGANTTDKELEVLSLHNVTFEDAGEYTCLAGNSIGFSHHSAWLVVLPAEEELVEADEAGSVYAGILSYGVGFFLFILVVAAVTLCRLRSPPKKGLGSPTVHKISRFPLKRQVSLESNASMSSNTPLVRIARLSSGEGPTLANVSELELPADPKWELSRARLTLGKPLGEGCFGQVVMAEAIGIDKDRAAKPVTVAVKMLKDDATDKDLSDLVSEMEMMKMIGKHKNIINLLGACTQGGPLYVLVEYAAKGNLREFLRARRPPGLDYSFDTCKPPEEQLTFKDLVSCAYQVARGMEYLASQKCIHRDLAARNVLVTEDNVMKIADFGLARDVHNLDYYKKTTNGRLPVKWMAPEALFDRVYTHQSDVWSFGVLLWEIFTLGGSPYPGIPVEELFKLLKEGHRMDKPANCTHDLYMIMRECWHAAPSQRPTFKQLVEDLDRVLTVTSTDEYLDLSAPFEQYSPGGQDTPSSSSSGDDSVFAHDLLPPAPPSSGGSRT
How it was run: as §1

[22] = target: T22, LYN (Homo sapiens, UniProt P07948)
T22 construct: purchased Reaction Biology Corporation (Kinase HotSpot)
How it was run: as §1

[23] = target: T23, NEK1 (Homo sapiens, UniProt Q96PY6)
T23 construct: purchased Reaction Biology Corporation (Kinase HotSpot)
How it was run: as §1

[24] = target: T24, TGFBR2 (Homo sapiens, UniProt P37173)
T24 construct: purchased Reaction Biology Corporation (Kinase HotSpot)
How it was run: as §1

[25] = target: T25, PAK5 (Homo sapiens, UniProt Q9P286)
T25 construct: purchased Reaction Biology Corporation (Kinase HotSpot)
How it was run: as §1

[26] = target: T26, ZAP70 (Homo sapiens, UniProt P43403)
T26 construct: purchased Reaction Biology Corporation (Kinase HotSpot)
How it was run: as §1

[27] = target: T27, PKN2/PRK2 (Homo sapiens, UniProt Q16513)
T27 construct: purchased Reaction Biology Corporation (Kinase HotSpot)
How it was run: as §1

[28] = target: T28, TSSK3/STK22C (Homo sapiens, UniProt Q96PN8)
T28 construct: purchased Reaction Biology Corporation (Kinase HotSpot)
T28 sequence (Q96PN8 whole entry): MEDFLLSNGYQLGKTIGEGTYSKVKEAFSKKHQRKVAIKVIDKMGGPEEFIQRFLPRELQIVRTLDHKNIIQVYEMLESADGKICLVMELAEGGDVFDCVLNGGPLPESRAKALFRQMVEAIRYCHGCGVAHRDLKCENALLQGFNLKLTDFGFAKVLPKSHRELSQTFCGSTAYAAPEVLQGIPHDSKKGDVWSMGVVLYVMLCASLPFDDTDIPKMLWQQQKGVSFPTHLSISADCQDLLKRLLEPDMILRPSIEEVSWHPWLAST
How it was run: as §1

[29] = target: T29, CK1g2 (Homo sapiens, UniProt P78368)
T29 construct: purchased Reaction Biology Corporation (Kinase HotSpot)
How it was run: as §1

[30] = target: T30, TAOK3/JIK (Homo sapiens, UniProt Q9H2K8)
T30 construct: purchased Reaction Biology Corporation (Kinase HotSpot)
T30 sequence (Q9H2K8 whole entry): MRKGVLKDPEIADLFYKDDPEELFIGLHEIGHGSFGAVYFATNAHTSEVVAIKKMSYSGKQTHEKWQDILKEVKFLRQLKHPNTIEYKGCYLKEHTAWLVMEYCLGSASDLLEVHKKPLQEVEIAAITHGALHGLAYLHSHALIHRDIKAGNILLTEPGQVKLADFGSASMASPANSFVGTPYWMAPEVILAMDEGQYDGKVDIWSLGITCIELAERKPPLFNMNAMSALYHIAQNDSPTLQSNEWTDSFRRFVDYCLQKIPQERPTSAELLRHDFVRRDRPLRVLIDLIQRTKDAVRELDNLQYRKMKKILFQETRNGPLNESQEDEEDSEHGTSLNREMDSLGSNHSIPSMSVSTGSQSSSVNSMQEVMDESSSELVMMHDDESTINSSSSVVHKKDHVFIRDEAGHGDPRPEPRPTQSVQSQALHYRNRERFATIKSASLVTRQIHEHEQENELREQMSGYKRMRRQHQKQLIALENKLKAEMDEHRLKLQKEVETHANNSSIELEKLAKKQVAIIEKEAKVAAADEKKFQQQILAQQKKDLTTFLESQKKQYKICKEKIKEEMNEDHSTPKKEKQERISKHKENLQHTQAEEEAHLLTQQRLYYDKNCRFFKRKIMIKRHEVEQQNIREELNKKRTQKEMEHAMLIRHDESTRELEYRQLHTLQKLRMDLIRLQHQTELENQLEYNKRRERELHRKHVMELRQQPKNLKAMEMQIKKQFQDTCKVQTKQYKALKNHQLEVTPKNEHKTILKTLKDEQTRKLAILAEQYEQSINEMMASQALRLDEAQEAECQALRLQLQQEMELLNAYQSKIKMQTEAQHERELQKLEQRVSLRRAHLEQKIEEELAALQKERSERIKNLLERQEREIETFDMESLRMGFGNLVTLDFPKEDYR
How it was run: as §1

Cc1cnc(N[C@H]2CC[C@H](N)CC2)nc1-c1cnc2ccc(-c3ccccc3)cn12 [CDDD11-8]
remaining activity at 1 µM [1]: 87.4% | remaining activity at 1 µM [2]: 72.6% | remaining activity at 1 µM [3]: 62.7% | remaining activity at 1 µM [4]: 106% | remaining activity at 1 µM [5]: 57.2% | remaining activity at 1 µM [6]: 113% | remaining activity at 1 µM [7]: 87.5% | remaining activity at 1 µM [8]: 43.1% | remaining activity at 1 µM [9]: 43% | remaining activity at 1 µM [10]: 61.2% | remaining activity at 1 µM [11]: 93.3% | remaining activity at 1 µM [12]: 47.7% | remaining activity at 1 µM [13]: 30.2% | remaining activity at 1 µM [14]: 101% | remaining activity at 1 µM [15]: 73% | remaining activity at 1 µM [16]: 86.7% | remaining activity at 1 µM [17]: 106% | remaining activity at 1 µM [18]: 103% | remaining activity at 1 µM [19]: 12.9% | remaining activity at 1 µM [20]: 95.3% | remaining activity at 1 µM [21]: 92.8% | remaining activity at 1 µM [22]: 65.5% | remaining activity at 1 µM [23]: 40.8% | remaining activity at 1 µM [24]: 95.6% | remaining activity at 1 µM [25]: 86.2% | remaining activity at 1 µM [26]: 101% | remaining activity at 1 µM [27]: 88.3% | remaining activity at 1 µM [28]: 98.3% | remaining activity at 1 µM [29]: 59.4% | remaining activity at 1 µM [30]: 48.6%
